Measurements reported in the supplement of paper PMC5579334.
± gives the standard deviation of the averaged measurements.

How the values were obtained:
HS-PSS [1] = experiment: drug sensitivity score (DSS, CellTiter-Glo viability, 72 h) (DSS (dimensionless)); higher = more sensitive; extreme values may be limits of the assay
Method in brief: (§1)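 MPNST cell lines and primary human Schwann cells (750–1000 cells per well) went into 384-well plates preprinted with each compound at five concentrations in 10-fold steps. Plates were incubated 72 h at 37 °C, 5% CO2. Viability was read as CellTiter-Glo ATP luminescence, scaled between vehicle and positive-control wells, with duplicates averaged where present. Percent inhibition is at the top concentration; drug sensitivity score and relative IC50 (censored at top concentration) come from four-parameter logistic fits.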

HS-Sch-2 [2] = experiment: as above
Method in brief: as §1

[3] = system: HSC1 (primary human Schwann cells); experiment: as above
Method in brief: as §1

[4] = system: HSC2 (primary human Schwann cells); experiment: as above
Method in brief: as §1

S1507-2 [5] = experiment: as above
Method in brief: as §1

S462 [6] = experiment: as above
Method in brief: as §1

ST8814 [7] = experiment: as above
Method in brief: as §1

STS26T [8] = experiment: as above
Method in brief: as §1

YST-1 [9] = experiment: as above
Method in brief: as §1

HS-PSS [10] = experiment: drug sensitivity score (DSS, CellTox-Green cytotoxicity, 72 h) (DSS (dimensionless)); higher = more cytotoxic; extreme values may be limits of the assay
Method in brief: (§2)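 MPNST cell lines and primary human Schwann cells were incubated 72 h at 37 °C in 384-well plates holding five 10-fold compound dilutions. CellTox-Green was added before seeding at a final 1:1000 dilution and reported fluorescence from DNA released by disrupted cells. Signals were scaled to vehicle and positive-control wells, and cultures failing plate quality control were dropped. Drug sensitivity score and relative IC50 come from four-parameter logistic fits, with IC50 censored at the top concentration.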

[11] = system: HSC1 (primary human Schwann cells); experiment: as above
Method in brief: as §2

[12] = system: HSC2 (primary human Schwann cells); experiment: as above
Method in brief: as §2

S1507-2 [13] = experiment: as above
Method in brief: as §2

ST8814 [14] = experiment: as above
Method in brief: as §2

STS26T [15] = experiment: as above
Method in brief: as §2

HS-PSS [16] = experiment: % inhibition of CellTiter-Glo viability at highest tested concentration (72 h), relative to DMSO and benzethonium chloride controls; higher = more inhibition
Method in brief: as §1

HS-Sch-2 [17] = experiment: as above
Method in brief: as §1

[18] = system: HSC1 (primary human Schwann cells); experiment: as above
Method in brief: as §1

[19] = system: HSC2 (primary human Schwann cells); experiment: as above
Method in brief: as §1

S1507-2 [20] = experiment: as above
Method in brief: as §1

S462 [21] = experiment: as above
Method in brief: as §1

ST8814 [22] = experiment: as above
Method in brief: as §1

STS26T [23] = experiment: as above
Method in brief: as §1

YST-1 [24] = experiment: as above
Method in brief: as §1

COC(=O)C[C@](O)(CCCC(C)(C)O)C(=O)O[C@@H]1C(OC)=C[C@]23CCCN2CCc2cc4c(cc2[C@H]13)OCO4 [Omacetaxine] (max concentration tested 10000 nM)
drug sensitivity score (HS-PSS [1]): 23.1
drug sensitivity score (HS-Sch-2 [2]): 26
drug sensitivity score [3]: 25.4
drug sensitivity score [4]: 26.6
drug sensitivity score (S1507-2 [5]): 25.33 ± 0.068
drug sensitivity score (S462 [6]): 31.4 ± 0.81
drug sensitivity score (ST8814 [7]): 25.2
drug sensitivity score (STS26T [8]): 27.9
drug sensitivity score (YST-1 [9]): 36.4
drug sensitivity score (HS-PSS [10]): 1.24
drug sensitivity score [11]: 8.49
drug sensitivity score [12]: 11.7
drug sensitivity score (S1507-2 [13]): 13.4 ± 3
drug sensitivity score (ST8814 [14]): 5
drug sensitivity score (STS26T [15]): 15
% inhibition (HS-PSS [16]): 80.3%
% inhibition (HS-Sch-2 [17]): 102%
% inhibition [18]: 92%
% inhibition [19]: 96.2%
% inhibition (S1507-2 [20]): 98.539 ± 0.044%
% inhibition (S462 [21]): 99.121 ± 0.0091%
% inhibition (ST8814 [22]): 88.6%
% inhibition (STS26T [23]): 98.6%
% inhibition (YST-1 [24]): 99.5%

C=CCc1cccc(/C=N/NC(=O)CN2CCN(Cc3ccccc3)CC2)c1O [PAC-1] (max concentration tested 10000 nM)
drug sensitivity score (HS-PSS [1]): 6.09
drug sensitivity score (HS-Sch-2 [2]): 10.1
drug sensitivity score [3]: 6.29
drug sensitivity score [4]: 8.57
drug sensitivity score (S1507-2 [5]): 2.43 ± 0.66
drug sensitivity score (S462 [6]): 3.7 ± 0.048
drug sensitivity score (ST8814 [7]): 3.36
drug sensitivity score (STS26T [8]): 3.59
drug sensitivity score (YST-1 [9]): 4.81
drug sensitivity score (HS-PSS [10]): 2.32
drug sensitivity score [11]: 0
drug sensitivity score [12]: 0
drug sensitivity score (S1507-2 [13]): 0
drug sensitivity score (ST8814 [14]): 0.202
drug sensitivity score (STS26T [15]): 0
% inhibition (HS-PSS [16]): 84.3%
% inhibition (HS-Sch-2 [17]): 91.1%
% inhibition [18]: 75.5%
% inhibition [19]: 85.9%
% inhibition (S1507-2 [20]): 52.7 ± 7.1%
% inhibition (S462 [21]): 73.6 ± 1.1%
% inhibition (ST8814 [22]): 57.7%
% inhibition (STS26T [23]): 54.6%
% inhibition (YST-1 [24]): 69.4%

O=C(Nc1cccnc1)N1CCC(Cc2cccc(Oc3ccc(C(F)(F)F)cn3)c2)CC1 [PF-3845] (max concentration tested 10000 nM)
drug sensitivity score (HS-PSS [1]): 7.9
drug sensitivity score (HS-Sch-2 [2]): 4.52
drug sensitivity score [3]: 2.77
drug sensitivity score [4]: 3.19
drug sensitivity score (S1507-2 [5]): 0
drug sensitivity score (S462 [6]): 0.985 ± 0.1
drug sensitivity score (ST8814 [7]): 0.0881
drug sensitivity score (STS26T [8]): 1.18
drug sensitivity score (YST-1 [9]): 0.86
drug sensitivity score (HS-PSS [10]): 0
drug sensitivity score [11]: 0
drug sensitivity score [12]: 0.053
drug sensitivity score (S1507-2 [13]): 0
drug sensitivity score (ST8814 [14]): 0
drug sensitivity score (STS26T [15]): 0
% inhibition (HS-PSS [16]): 79.6%
% inhibition (HS-Sch-2 [17]): 79%
% inhibition [18]: 33.5%
% inhibition [19]: 35.3%
% inhibition (S1507-2 [20]): 2.03 ± 3.1%
% inhibition (S462 [21]): 20.3 ± 0.84%
% inhibition (ST8814 [22]): 11.5%
% inhibition (STS26T [23]): 24.2%
% inhibition (YST-1 [24]): 25.5%

COc1ccccc1S(=O)(=O)Nc1ccc2c(c1)CN(C)C(=O)N2 [PFI-1] (max concentration tested 10000 nM)
drug sensitivity score (HS-PSS [1]): 2.11
drug sensitivity score (HS-Sch-2 [2]): 5.21
drug sensitivity score [3]: 3.78
drug sensitivity score [4]: 4.03
drug sensitivity score (S1507-2 [5]): 6.21 ± 0.6
drug sensitivity score (S462 [6]): 4.68 ± 0.9
drug sensitivity score (ST8814 [7]): 5.94
drug sensitivity score (STS26T [8]): 3.53
drug sensitivity score (YST-1 [9]): 4.93
drug sensitivity score (HS-PSS [10]): 0
drug sensitivity score [11]: 0
drug sensitivity score [12]: 0
drug sensitivity score (S1507-2 [13]): 2.07 ± 1.1
drug sensitivity score (ST8814 [14]): 1.77
drug sensitivity score (STS26T [15]): 0
% inhibition (HS-PSS [16]): 48.1%
% inhibition (HS-Sch-2 [17]): 58.4%
% inhibition [18]: 62.2%
% inhibition [19]: 53.7%
% inhibition (S1507-2 [20]): 69.2 ± 3.9%
% inhibition (S462 [21]): 53.6 ± 4.7%
% inhibition (ST8814 [22]): 63.6%
% inhibition (STS26T [23]): 39.5%
% inhibition (YST-1 [24]): 56.6%

CC(=O)O[C@H]1C(=O)[C@@]2(C)[C@H]([C@H](OC(=O)c3ccccc3)[C@]3(O)C[C@H](OC(=O)[C@H](O)[C@@H](NC(=O)c4ccccc4)c4ccccc4)C(C)=C1C3(C)C)[C@]1(OC(C)=O)CO[C@@H]1C[C@@H]2O [Paclitaxel] (max concentration tested 1000 nM)
drug sensitivity score (HS-PSS [1]): 12.2
drug sensitivity score (HS-Sch-2 [2]): 23.3
drug sensitivity score [3]: 18
drug sensitivity score [4]: 19.1
drug sensitivity score (S1507-2 [5]): 17.3 ± 0.6
drug sensitivity score (S462 [6]): 28.8 ± 1.5
drug sensitivity score (ST8814 [7]): 18.3
drug sensitivity score (STS26T [8]): 28.1
drug sensitivity score (YST-1 [9]): 23.7
drug sensitivity score (HS-PSS [10]): 0
drug sensitivity score [11]: 17.8
drug sensitivity score [12]: 20.3
drug sensitivity score (S1507-2 [13]): 15.9 ± 1.1
drug sensitivity score (ST8814 [14]): 18.6
drug sensitivity score (STS26T [15]): 33.8
% inhibition (HS-PSS [16]): 45.7%
% inhibition (HS-Sch-2 [17]): 93%
% inhibition [18]: 70.6%
% inhibition [19]: 73.9%
% inhibition (S1507-2 [20]): 84.6 ± 1%
% inhibition (S462 [21]): 99.3 ± 1.5%
% inhibition (ST8814 [22]): 94.5%
% inhibition (STS26T [23]): 99.6%
% inhibition (YST-1 [24]): 81.6%

CC(=O)c1c(C)c2cnc(Nc3ccc(N4CCNCC4)cn3)nc2n(C2CCCC2)c1=O [Palbociclib] (max concentration tested 10000 nM)
drug sensitivity score (HS-PSS [1]): 3.5
drug sensitivity score (HS-Sch-2 [2]): 5.62
drug sensitivity score [3]: 5.26
drug sensitivity score [4]: 7.37
drug sensitivity score (S1507-2 [5]): 3.73 ± 0.74
drug sensitivity score (S462 [6]): 8.25 ± 0.96
drug sensitivity score (ST8814 [7]): 1.84
drug sensitivity score (STS26T [8]): 3.39
drug sensitivity score (YST-1 [9]): 3.89
drug sensitivity score (HS-PSS [10]): 0
drug sensitivity score [11]: 0
drug sensitivity score [12]: 0
drug sensitivity score (S1507-2 [13]): 1.02 ± 1.1
drug sensitivity score (ST8814 [14]): 0
drug sensitivity score (STS26T [15]): 0
% inhibition (HS-PSS [16]): 41.6%
% inhibition (HS-Sch-2 [17]): 68.8%
% inhibition [18]: 31.6%
% inhibition [19]: 45.6%
% inhibition (S1507-2 [20]): 38.8 ± 0.47%
% inhibition (S462 [21]): 72.2 ± 6.1%
% inhibition (ST8814 [22]): 28%
% inhibition (STS26T [23]): 36.7%
% inhibition (YST-1 [24]): 44.5%

Cc1[nH]c2ccccc2c1CCNCc1ccc(/C=C/C(=O)NO)cc1 [Panobinostat] (max concentration tested 1000 nM)
drug sensitivity score (HS-PSS [1]): 14.1
drug sensitivity score (HS-Sch-2 [2]): 19.1
drug sensitivity score [3]: 19.5
drug sensitivity score [4]: 16.7
drug sensitivity score (S1507-2 [5]): 24.1 ± 0.61
drug sensitivity score (S462 [6]): 22.7 ± 0.67
drug sensitivity score (ST8814 [7]): 22
drug sensitivity score (STS26T [8]): 16.8
drug sensitivity score (YST-1 [9]): 23.7
drug sensitivity score (HS-PSS [10]): 9.17
drug sensitivity score [11]: 10.5
drug sensitivity score [12]: 10.7
drug sensitivity score (S1507-2 [13]): 20.6 ± 0.84
drug sensitivity score (ST8814 [14]): 16.1
drug sensitivity score (STS26T [15]): 11.1
% inhibition (HS-PSS [16]): 93.9%
% inhibition (HS-Sch-2 [17]): 101%
% inhibition [18]: 101%
% inhibition [19]: 101%
% inhibition (S1507-2 [20]): 104.5 ± 0.79%
% inhibition (S462 [21]): 103.7 ± 0.37%
% inhibition (ST8814 [22]): 101%
% inhibition (STS26T [23]): 98%
% inhibition (YST-1 [24]): 99.9%
